Here are results for 1 molecule from patent EP0750511B1, “TREATING IN[…] THE ADMINISTRATION OF SPECIFIC SULFATASE ENZYMES AND/OR SULFATION INHIBITOR” (THE REGENTS OF THE UNIVERSITY OF CALIFORNIA, priority 1994, dated 1995).

In assay [1] the test system is GlyCAM-1. Nature of the assay: [3H]-threonine metabolic labelling of lymph nodes (synthesis of protein core). The assay is classed as cell-based, mouse. The note with it: presence of chlorate. The protocol:
(§1) To determine what effect chlorate had on the synthesis of the protein core of GlyCAM-1, we employed ^3H-threonine as a metabolic label. […] With or without chlorate treatment, two antibodies against the core protein of GlyCAM-1 precipitated broad bands that ran at ≈50K.
(§2) Mouse lymph nodes were labeled with 750 µCi of L-[3-^3H] threonine (Amersham) in 0.5 ml of threonine free-1/10 sulfate concentration-RPMI 1640 containing 25 mM HEPES for 4 h at 37°C in the absence or the presence of 10 mM sodium chlorate. Detergent lysates were boiled, precleared and subjected to precipitation with the indicated reagent as described in Example 1. Conditioned media were precleared and precipitated in parallel. The bead-bound material was analyzed on SDS-PAGE under reducing conditions with fluorography. In the anti-peptide antibody lanes, the ≈50K component was compressed by the immunoglobulin heavy chain.

Assay [2] deals with GlyCAM-1. The experiment in a line: [3H]-fucose metabolic labelling of lymph node organ culture (fucosylation of GlyCAM-1). The assay is classed as cell-based, mouse. The protocol: (§3) To determine directly whether the fucosylation of GlyCAM-1 was affected by chlorate, ^3H-fucose was employed as a metabolic precursor. […] However, while LEC-IgG precipitated GlyCAM-1 in the control culture, LEC-IgG precipitated only a background level of counts (7% of control) from the chlorate-treated culture and there was no detectable GlyCAM-1.
Pooled mesenteric and peripheral lymph nodes from ICR mice (80 mg wet weight per condition) were incubated with (a) 250 µCi of [^35-S]-sodium sulfate (ICN) or (b) 250 µCi of [5,6 ^3-H]-L-fucose (ICN) in the presence or absence of 10 mM Na chlorate (Aldrich) in 0.5 ml of RPMI-1640 with 25 mM HEPES (1/10 sulfate concentration) for 4 h at 37°C. Tissue was extracted with 1.2 ml of 2% Triton X-100 (Boehringer Mannheim) in Dulbecco's PBS containing 1 mM PMSF (Sigma), 1% (v/v) aprotinin (Sigma), 10 µg/ml of pepstatin (Boehringer Mannheim) and 0.02% NaN3 (lysis buffer) as described previously^11. The lysates were boiled 3 min and the supernatants were precleared with 100 µl of Protein A Sepharose (Zymed) overnight. […]

For assay [3], the system named is GlyCAM-1. Nature of the assay: Label incorporation into GlyCAM-1 immunoprecipitated (CAM02 Ab) from conditioned medium of lymph node organ culture. The assay is classed as cell-based, mouse. The protocol:
(^3H-Gal)-labeled GlyCAM-1 was produced in mouse lymph node organ cultures as described in Examples 1-4 above. Undersulfated GlyCAM was generated by organ culture of murine lymph nodes in medium containing 10 mM Na-chlorate, a known inhibitor of sulfation. GlyCAM-1 was isolated from the conditioned media by immunoprecipitation with an antibody to a peptide sequence in the core protein of GlyCAM-1 (CAM02 Ab), as described in Examples 1-4 above. […] Desialylation of GlyCAM-1 was accomplished in all cases by treatment with Arthrobacter ureafacens sialidase (1.75 units/ml) in 120 mM Na acetate, pH 5.5 (18 h 37°C).

For another assay, the system named is CD34/Sgp90. The experiment in a line: Interaction of CD34/Sgp90 with L-selectin after inhibition of its sulfation. The assay is classed as cell-based. The note with it: sulfation inhibited by chlorate treatment. The text has this:
The complete loss of reactivity with LEC-IgG establishes the importance of sulfation for binding. […] CD34/Sgp90 is also a sulfated ligand of L-selectin.

A further assay deals with L-selectin. The experiment in a line: Precipitation of metabolically labelled GlyCAM-1 from lymph node cultures with L-selectin chimera (LEC-IgG). It counts as cell-based. As for the experimental part: (§4) Slices of mouse lymph nodes were cultured with ^35S-sulfate in the presence and absence of 10 mM sodium chlorate. Detergent lysates were prepared and subjected to precipitation with several reagents that recognize GlyCAM-1. […] Only a background level (0.9% of control) of radioactivity was measured in the precipitate from the chlorate-treated culture.
as §3, §1
(§5) Pooled mesenteric and peripheral lymph nodes from ICR mice (80 mg wet weight per condition) were incubated with (a) 250 µCi of [^35-S]-sodium sulfate (ICN) or (b) 250 µCi of [5,6 ^3-H]-L-fucose (ICN) in the presence or absence of 10 mM Na chlorate (Aldrich) in 0.5 ml of RPMI-1640 with 25 mM HEPES (1/10 sulfate concentration) for 4 h at 37°C. Tissue was extracted with 1.2 ml of 2% Triton X-100 (Boehringer Mannheim) in Dulbecco's PBS containing 1 mM PMSF (Sigma), 1% (v/v) aprotinin (Sigma), 10 µg/ml of pepstatin (Boehringer Mannheim) and 0.02% NaN3 (lysis buffer) as described previously^11. The lysates were boiled 3 min and the supernatants were precleared with 100 µl of Protein A Sepharose (Zymed) overnight. Aliquots of the precleared supernatants were added to 10 µl beads of LEC-IgG-Protein A Sepharose Beads (30 µg LEC-IgG per 10 µl beads), rabbit anti-peptide 2-Protein A beads (10 µl serum per 10 µl beads), rabbit preimmune serum-Protein A beads (10 µl serum per 10 µl beads), Limax flavus agglutinin-Sepharose beads (20 µg protein per 10 µl beads), or Aleuria aurantia agglutinin-Sepharose beads (10 µg protein per 10 µl beads), and incubated for 4 h at 4°C on a rocker. The beads were washed in the lysis buffer (6 times), and the 1/14 aliquots of beads were saved for direct counting by a scintillation counting and the remainder of beads were solubilized in Laemmli sample buffer (without beta mercaptoethanol) and run by on a 10% acrylamide gel (nonreducing condition) with fluorography employing ENHANCE (New England Nuclear). Molecular weight markers (BioRad) were phosphorylase B (97.4 K), BSA (66.2 K), ovalbumin (45 K), carbonic anhydrase (31 K), soybean trypsin inhibitor (21.5 K). LEC-IgG and antiserum were coated on Protein A-Sepharose beads by rocking overnight at 4°C. Lectin beads were prepared by coupling Limax agglutinin (Calbiochem) and AAA (Boehringer Mannheim) to CNBr-activated Sepharose 4B (Sigman). Miller, R., Meth. Enzymol. 138:527-536 (1987).
as §2

Assay [4] concerns GlyCAM-1. Nature of the assay: [35S]-sulfate metabolic labelling of lymph node organ culture; precipitation of GlyCAM-1 with peptide antibody or lectins, scintillation counting. It counts as cell-based, mouse. As for the experimental part: as §4, §5
Inhibition of GlyCAM-1 sulfation eliminates its interaction and/or binding with L-selectin. This conclusion was reached when aliquots of the same precipitates of Example 1, labeled with (a) [^35-S]-sulfate or (b) [^3-H]-fucose in the presence (dark bars) or absence (cross-hatched bars) of chlorate were subjected to scintillation counting. The percents shown in a given panel (a) (not shown) indicate the percent counts obtained in the presence of chlorate as compared to the absence of chlorate. The values for anti-peptide 2, Limax, and AAA were essentially the same, reflecting the overall reduction in sulfation. In an independent experiment, the corresponding values were: 6% (for LEC-IgG), 35.6% (for anti-peptide 2), 35.3% (for Limax).

The mark [5] stands for this setting: chlorate 10 mM in organ cultures of lymph nodes.

SMILES strings stand for the structures.

Regarding `[O-][Cl+2]([O-])O` [chlorate, sodium chlorate], in the assay on GlyCAM-1 [1], the “rate of synthesis of the protein core of GlyCAM or CD34” value is listed as “did not affect”. Further, in the assay with GlyCAM-1 [2] (^3H-fucose label, detergent lysates, chlorate versus control cultures), the “cpm precipitated by the peptide antibody” value is on record as “approximately the same number of cpm”. For the same molecule, the “level of fucosylation (incorporation of [^3H]-fucose into GlyCAM)” value in the assay on GlyCAM-1 [2] (presence of chlorate) was “not affected”. Moreover, the “[^3H]-galactose activity incorporated by GlyCAM, presence versus absence of chlorate” value in the assay on GlyCAM-1 [3] (10 mM Na-chlorate, 0.25 mCi input) is “about the same”. In the assay with GlyCAM-1 [3] (10 mM Na-chlorate, 0.5 mCi input, control 1.75 x 10^6 cpm), the “incorporation of [^35S]-sulfate into GlyCAM” value is on record as 0.16 x 10^6 cpm. For the same molecule, the activity at 10000 µM in the assay on GlyCAM-1 [3] (Mus musculus, 10 mM Na-chlorate, 0.5 mCi input, read-out: incorporation of [^35S]-sulfate into GlyCAM) stood at 10%; with GlyCAM-1 [4] (Mus musculus, [^35-S]-sulfate label, independent experiment, read-out: percent counts in the presence of chlorate as compared to the absence, Limax), 35.3%; in the assay with GlyCAM-1 [4] (Mus musculus, [^35-S]-sulfate label, independent experiment, read-out: percent counts in the presence of chlorate as compared to the absence, anti-peptide 2) it was 35.6%; in the assay with GlyCAM-1 [4] (Mus musculus, ^35S-sulfate label, 10 mM sodium chlorate, detergent lysates, scintillation counting, read-out: radioactivity immunoprecipitated by the peptide antibody) it was 12%; in the assay with GlyCAM-1 [4] (Mus musculus, ^35S-sulfate label, 10 mM sodium chlorate, detergent lysates, read-out: ^35S-sulfate precipitated by Aleuria aurentia lectin), 13.7%; in the assay with GlyCAM-1 [4] (Mus musculus, ^35S-sulfate label, 10 mM sodium chlorate, detergent lysates, read-out: ^35S-sulfate precipitated by Limax agglutinin), 11.4%. In addition, the activity at 10000 µM with GlyCAM-1 [4] (Mus musculus, inferred from the ratio of counts precipitated by the peptide antibody, read-out: sulfate incorporation into GlyCAM-1) is 10 to 15%. Also, the “[^3H]-galactose activity incorporated by GlyCAM” value with GlyCAM-1 [3] (presence or absence of chlorate, 0.25 mCi input) is given as 2 x 10^6 cpm. Further, the “ability of CD34/Sgp90 to interact with L-selectin” value in the assay with CD34/Sgp90 is “drastically inhibited”. Further, the “percent counts in the presence of chlorate as compared to the absence, LEC-IgG” value with L-selectin ([^35-S]-sulfate label, independent experiment, 10000 µM) came out at 6%. For the same molecule, in the assay on L-selectin (^3H-fucose label, chlorate-treated culture, 10000 µM), the “counts precipitated by LEC-IgG” value was 7 % of control. Further, the “GlyCAM-1 component precipitated by LEC-IgG from conditioned medium” value with L-selectin (^3H-threonine label, chlorate present during the culture) is “did not react with any components”. In addition, the “radioactivity in the LEC-IgG precipitate” value in the assay with L-selectin (^35S-sulfate label, 10 mM sodium chlorate, detergent lysates) was 0.9 % of control. Besides, in the assay with L-selectin (^35S-sulfate label, chlorate-treated culture, strong band in control), the “GlyCAM-1 band precipitated by LEC-IgG (SDS-PAGE)” value is reported as “failed to precipitate a detectable GlyCAM-1 band”. Besides, in the assay on L-selectin (setting [5]), the “binding to L-selectin (GlyCAM and CD34)” value is reported as “completely eliminated”. In the assay with L-selectin (culture in chlorate), the “binding of LEC-IgG to GlyCAM” value is “completely abrogated”. For the same molecule, the inhibition at 10000 µM in the assay with GlyCAM-1 [4] (Mus musculus, chlorate 10 mM in organ cultures of lymph nodes, read-out: reduction of incorporation of ^35S-SO4 into GlyCAM and CD34) is approximately 90%. Also, the “Binding of GlyCAM to a fucose-specific lectin (Aleuria aurantia agglutinin)” value with GlyCAM-1 [4] (setting [5]) is reported as “unchanged”. Moreover, the “Binding of GlyCAM to a sialic acid specific lectin (Limax agglutinin)” value in the assay on GlyCAM-1 [4] (setting [5]) is recorded as “unchanged”.
